Experimental data from patent US9580437B2, “Triazolopyrimidine compounds and uses thereof” (Novartis AG, priority 2014, dated 2017).

Experiments:
[1] = target: wild type PRC2 (wtPRC2) complex (Homo sapiens (Human), UniProt O75530); assay: EED LC-MS assay; type: biochemical; conditions: read-out: (b) IC50 EED LC-MS Qualified
Method: A 6 μL solution of 3 μM of the peptide substrate H3K27Me0 (histone H3[21-44]-biotin) in reaction buffer was added to initiate each reaction. […] ELISA (H3K27 Methylation) Assay

EED (1-441)-His protein = EED (1-441)-His protein (Homo sapiens (Human), UniProt O75530); assay: EED-H3K27Me3 peptide competition binding assay by AlphaScreen; conditions: read-out: (a) IC50 EED Alphascreen binding Qualified
From the text: EED-H3K27Me3 peptide competition binding assay by AlphaScreen (α-screen)

Sequence of EED (1-441)-His protein (O75530 whole entry): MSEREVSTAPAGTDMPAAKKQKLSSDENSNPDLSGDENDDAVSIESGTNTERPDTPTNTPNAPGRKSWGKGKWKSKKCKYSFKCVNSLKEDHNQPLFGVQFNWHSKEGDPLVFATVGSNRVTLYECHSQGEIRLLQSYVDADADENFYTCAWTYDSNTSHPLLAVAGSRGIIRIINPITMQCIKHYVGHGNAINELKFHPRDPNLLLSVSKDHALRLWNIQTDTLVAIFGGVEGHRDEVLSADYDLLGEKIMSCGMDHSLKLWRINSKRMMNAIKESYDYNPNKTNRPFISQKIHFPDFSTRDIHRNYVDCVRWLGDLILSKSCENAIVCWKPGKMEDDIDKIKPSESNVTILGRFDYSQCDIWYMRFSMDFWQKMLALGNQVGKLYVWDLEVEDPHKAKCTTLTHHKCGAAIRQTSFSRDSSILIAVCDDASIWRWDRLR
Sequence of wild type PRC2 (wtPRC2) complex (O75530 whole entry): as above
Sequence of wild type PRC2 (wtPRC2) complex (Q15910 whole entry partner): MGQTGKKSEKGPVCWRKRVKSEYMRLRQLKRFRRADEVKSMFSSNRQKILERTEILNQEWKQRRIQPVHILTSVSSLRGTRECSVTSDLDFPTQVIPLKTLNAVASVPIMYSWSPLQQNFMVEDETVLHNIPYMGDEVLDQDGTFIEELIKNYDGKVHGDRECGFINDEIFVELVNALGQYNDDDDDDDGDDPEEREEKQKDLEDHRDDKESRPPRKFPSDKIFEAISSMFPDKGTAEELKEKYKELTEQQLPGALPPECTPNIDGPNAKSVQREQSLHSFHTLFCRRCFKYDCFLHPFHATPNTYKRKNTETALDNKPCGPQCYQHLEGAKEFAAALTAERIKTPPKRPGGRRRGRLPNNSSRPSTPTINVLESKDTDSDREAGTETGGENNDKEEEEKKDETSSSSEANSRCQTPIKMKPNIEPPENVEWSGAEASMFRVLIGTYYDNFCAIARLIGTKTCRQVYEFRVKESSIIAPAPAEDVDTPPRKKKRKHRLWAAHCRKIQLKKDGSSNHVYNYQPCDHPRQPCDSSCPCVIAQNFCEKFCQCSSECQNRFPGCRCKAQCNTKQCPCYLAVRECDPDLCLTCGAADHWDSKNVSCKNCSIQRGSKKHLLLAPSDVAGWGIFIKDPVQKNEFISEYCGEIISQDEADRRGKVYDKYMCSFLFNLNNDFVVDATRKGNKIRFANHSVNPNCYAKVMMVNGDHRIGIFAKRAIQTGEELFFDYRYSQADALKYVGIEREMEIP
Sequence of wild type PRC2 (wtPRC2) complex (Q15022 whole entry partner): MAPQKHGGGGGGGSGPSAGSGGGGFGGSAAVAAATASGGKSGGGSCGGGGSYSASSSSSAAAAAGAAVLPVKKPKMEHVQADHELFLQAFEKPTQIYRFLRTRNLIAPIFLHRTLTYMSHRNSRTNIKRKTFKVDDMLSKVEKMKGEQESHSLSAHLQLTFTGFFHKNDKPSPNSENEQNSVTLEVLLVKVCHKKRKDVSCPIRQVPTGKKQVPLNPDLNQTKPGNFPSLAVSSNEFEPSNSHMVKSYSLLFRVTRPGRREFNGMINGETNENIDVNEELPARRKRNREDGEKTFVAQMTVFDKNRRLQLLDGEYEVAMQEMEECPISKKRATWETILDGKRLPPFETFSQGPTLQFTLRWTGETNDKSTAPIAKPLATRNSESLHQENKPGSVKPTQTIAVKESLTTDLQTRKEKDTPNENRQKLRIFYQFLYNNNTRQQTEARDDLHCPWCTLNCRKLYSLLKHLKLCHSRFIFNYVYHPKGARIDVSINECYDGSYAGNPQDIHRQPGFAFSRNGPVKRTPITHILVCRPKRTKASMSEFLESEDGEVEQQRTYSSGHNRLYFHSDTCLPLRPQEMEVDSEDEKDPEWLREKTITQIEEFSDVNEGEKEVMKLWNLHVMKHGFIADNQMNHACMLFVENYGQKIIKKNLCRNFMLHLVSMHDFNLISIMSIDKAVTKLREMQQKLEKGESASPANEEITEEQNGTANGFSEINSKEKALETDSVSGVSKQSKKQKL

SMILES	IC50 [1] [nM]	IC50 (EED (1-441)-His protein) [nM]
c1cc(CNc2ncc(-c3ccc(C4CC4)nc3)c3nncn23)c2c(c1)OCC2 [Example 65, 8-(6-cyclopropylpyridin-3-yl)-N-((2,3-dihydrobenzofuran-4-yl)methyl)-[1,2,4]triazolo[4,3-c]pyrimidin-5-amine]	20	18.3
COCCn1nc(C)c(-c2cnc(NCc3cccc4c3CCO4)n3cnnc23)c1C [Example 66, N-((2,3-dihydrobenzofuran-4-yl)methyl)-8-(1-(2-methoxyethyl)-3,5-dimethyl-1H-pyrazol-4-yl)-[1,2,4]triazolo[4,3-c]pyrimidin-5-amine]	44.7	15.6
Cc1nn(CCO)c(C)c1-c1cnc(NCc2cccc3c2CCO3)n2cnnc12 [Example 67, 2-(4-(5-(((2,3-dihydrobenzofuran-4-yl)methyl)amino)-[1,2,4]triazolo[4,3-c]pyrimidin-8-yl)-3,5-dimethyl-1H-pyrazol-1-yl)ethanol]	90.2	30.9
O=C(c1ccc(-c2cnc(NCc3cccc4c3CCO4)n3cnnc23)cn1)N1CCOCC1 [Example 68, (5-(5-(((2,3-dihydrobenzofuran-4-yl)methyl)amino)-[1,2,4]triazolo[4,3-c]pyrimidin-8-yl)pyridin-2-yl)(morpholino)methanone]	36.7	19.7
c1cc(CNc2ncc(-c3ccc(N4CCOCC4)nc3)c3nncn23)c2c(c1)OCC2 [Example 69, N-((2,3-dihydrobenzofuran-4-yl)methyl)-8-(6-morpholinopyridin-3-yl)-[1,2,4]triazolo[4,3-c]pyrimidin-5-amine]	377	182
Cc1noc(C)c1-c1cnc(NCc2c(F)ccc3c2CCO3)n2cnnc12 [Example 71, 8-(3,5-dimethylisoxazol-4-yl)-N-((5-fluoro-2,3-dihydrobenzofuran-4-yl)methyl)-[1,2,4]triazolo[4,3-c]pyrimidin-5-amine]	18.9	9
CN1CCN(C(=O)c2ccc(-c3cnc(NCc4c(F)ccc5c4CCO5)n4cnnc34)cc2)CC1 [Example 72, (4-(5-(((5-fluoro-2,3-dihydrobenzofuran-4-yl)methyl)amino)-[1,2,4]triazolo[4,3-c]pyrimidin-8-yl)phenyl)(4-methylpiperazin-1-yl)methanone]	17.5	9.3
CS(=O)(=O)CCOc1ccc(-c2cnc(NCc3cccc4c3CCO4)n3cnnc23)cc1 [Example 75, N-((2,3-dihydrobenzofuran-4-yl)methyl)-8-(4-(2-(methylsulfonyl)ethoxy)phenyl)-[1,2,4]triazolo[4,3-c]pyrimidin-5-amine]	37.5	34
CNC(=O)c1ccc(-c2cnc(NCc3cccc4c3CCO4)n3cnnc23)cn1 [Example 79, 5-(5-(((2,3-dihydrobenzofuran-4-yl)methyl)amino)-[1,2,4]triazolo[4,3-c]pyrimidin-8-yl)-N-methylpicolinamide]	103	57.5
O=C(c1ccc(-c2cnc(NCc3cccc4c3CCO4)n3cnnc23)cn1)N1CCCC1 [Example 80, (5-(5-(((2,3-dihydrobenzofuran-4-yl)methyl)amino)-[1,2,4]triazolo[4,3-c]pyrimidin-8-yl)pyridin-2-yl)(pyrrolidin-1-yl)methanone]	8.8	3.7
O=C1CCCN1c1cncc(-c2cnc(NCc3cccc4c3CCO4)n3cnnc23)c1 [Example 87, 1-(5-(5-(((2,3-dihydrobenzofuran-4-yl)methyl)amino)-[1,2,4]triazolo[4,3-c]pyrimidin-8-yl)pyridin-3-yl)pyrrolidin-2-one]	83.9	41.8
CN(C)CCc1cccc(-c2cnc(NCc3cccc4c3CCO4)n3cnnc23)c1 [Example 89, N-((2,3-dihydrobenzofuran-4-yl)methyl)-8-(3-(2-(dimethylamino)ethyl)phenyl)-[1,2,4]triazolo[4,3-c]pyrimidin-5-amine]	10.3	4.5
CC1(C)COC(c2cncc(-c3cnc(NCc4cccc5c4CCO5)n4cnnc34)c2)=N1 [Example 90, N-((2,3-dihydrobenzofuran-4-yl)methyl)-8-(5-(4,4-dimethyl-4,5-dihydrooxazol-2-yl)pyridin-3-yl)-[1,2,4]triazolo[4,3-c]pyrimidin-5-amine]	30.3	13.1
Fc1ccc2c(c1CNc1ncc(-c3ccc(N4CCSCC4)nc3)c3nncn13)CCO2 [Example 91, N-((5-fluoro-2,3-dihydrobenzofuran-4-yl)methyl)-8-(6-thiomorpholinopyridin-3-yl)-[1,2,4]triazolo[4,3-c]pyrimidin-5-amine]	15.3	9.9
N#Cc1ccc(-c2cnc(NCc3c(F)ccc4c3CCO4)n3cnnc23)cn1 [Example 93, 5-(5-(((5-fluoro-2,3-dihydrobenzofuran-4-yl)methyl)amino)-[1,2,4]triazolo[4,3-c]pyrimidin-8-yl)picolinonitrile]	12.5	7.9

The remaining molecules from weak to strong by IC50 [1], led by results:

IC50 [1] [nM]	IC50 (EED (1-441)-His protein) [nM]	SMILES
160	103	FC(F)Oc1ccc(-c2cnc(NCc3cccc4c3CCO4)n3cnnc23)cn1 [Example 78, 8-(6-(difluoromethoxy)pyridin-3-yl)-N-((2,3-dihydrobenzofuran-4-yl)methyl)-[1,2,4]triazolo[4,3-c]pyrimidin-5-amine]
139	89.6	CC1CN(c2ccc(-c3cnc(NCc4cccc5c4CCO5)n4cnnc34)cn2)CC(C)O1 (stereo not drawn) [Example 74, N-((2,3-dihydrobenzofuran-4-yl)methyl)-8-(6-(2,6-dimethylmorpholino)pyridin-3-yl)-[1,2,4]triazolo[4,3-c]pyrimidin-5-amine]
56.9	27.5	Nc1ccncc1-c1cnc(NCc2cccc3c2CCO3)n2cnnc12 [Example 76, 8-(4-aminopyridin-3-yl)-N-((2,3-dihydrobenzofuran-4-yl)methyl)-[1,2,4]triazolo[4,3-c]pyrimidin-5-amine]
52.3	21.6	c1cc(CNc2ncc(-c3cncc(N4CCNCC4)c3)c3nncn23)c2c(c1)OCC2 [Example 77, N-((2,3-dihydrobenzofuran-4-yl)methyl)-8-(5-(piperazin-1-yl)pyridin-3-yl)-[1,2,4]triazolo[4,3-c]pyrimidin-5-amine]
51.5	19.2	Fc1ccc2c(c1CNc1ncc(-c3ccc(N4CCOCC4)nc3)c3nncn13)CCO2 [Example 92, N-((5-fluoro-2,3-dihydrobenzofuran-4-yl)methyl)-8-(6-morpholinopyridin-3-yl)-[1,2,4]triazolo[4,3-c]pyrimidin-5-amine]
41.3	12.4	Cc1c(-c2cnc(NCc3cccc4c3CCO4)n3cnnc23)cnn1C [Example 64, N-((2,3-dihydrobenzofuran-4-yl)methyl)-8-(1,5-dimethyl-1H-pyrazol-4-yl)-[1,2,4]triazolo[4,3-c]pyrimidin-5-amine]
34.7	25.7	CN(C)c1ncc(-c2cnc(NCc3cccc4c3CCO4)n3cnnc23)cn1 [Example 88, N-((2,3-dihydrobenzofuran-4-yl)methyl)-8-(2-(dimethylamino)pyrimidin-5-yl)-[1,2,4]triazolo[4,3-c]pyrimidin-5-amine]
30.9	16.7	Cc1nn(C(C)C)cc1-c1cnc(NCc2cccc3c2CCO3)n2cnnc12 [Example 82, N-((2,3-dihydrobenzofuran-4-yl)methyl)-8-(1-isopropyl-3-methyl-1H-pyrazol-4-yl)-[1,2,4]triazolo[4,3-c]pyrimidin-5-amine]
26.7	11.1	COCCc1ccc(-c2cnc(NCc3cccc4c3CCO4)n3cnnc23)cn1 [Example 86, N-((2,3-dihydrobenzofuran-4-yl)methyl)-8-(6-(2-methoxyethyl)pyridin-3-yl)-[1,2,4]triazolo[4,3-c]pyrimidin-5-amine]
26	8.3	Fc1ccncc1-c1cnc(NCc2cccc3c2CCO3)n2cnnc12 [Example 85, N-((2,3-dihydrobenzofuran-4-yl)methyl)-8-(4-fluoropyridin-3-yl)-[1,2,4]triazolo[4,3-c]pyrimidin-5-amine]
22.8	10.5	COCc1ncc(-c2cnc(NCc3cccc4c3CCO4)n3cnnc23)cc1C [Example 83, N-((2,3-dihydrobenzofuran-4-yl)methyl)-8-(6-(methoxymethyl)-5-methylpyridin-3-yl)-[1,2,4]triazolo[4,3-c]pyrimidin-5-amine]
21.1	11.5	Cc1cc(-c2cnc(NCc3cccc4c3CCO4)n3cnnc23)cnc1S(C)(=O)=O [Example 70, N-((2,3-dihydrobenzofuran-4-yl)methyl)-8-(5-methyl-6-(methylsulfonyl)pyridin-3-yl)-[1,2,4]triazolo[4,3-c]pyrimidin-5-amine]
19.1	14.6	c1cc(CNc2ncc(-c3ccc(N4CCSCC4)nc3)c3nncn23)c2c(c1)OCC2 [Example 81, N-((2,3-dihydrobenzofuran-4-yl)methyl)-8-(6-thiomorpholinopyridin-3-yl)-[1,2,4]triazolo[4,3-c]pyrimidin-5-amine]
17.4	12.5	Cc1cc(-c2cnc(NCc3cccc4c3CCO4)n3cnnc23)cnc1N1CCOCC1 [Example 73, N-((2,3-dihydrobenzofuran-4-yl)methyl)-8-(5-methyl-6-morpholinopyridin-3-yl)-[1,2,4]triazolo[4,3-c]pyrimidin-5-amine]
12.9	6.3	CC(O)c1ccc(-c2cnc(NCc3cccc4c3CCO4)n3cnnc23)cn1 (stereo not drawn) [Example 84, 1-(5-(5-(((2,3-dihydrobenzofuran-4-yl)methyl)amino)-[1,2,4]triazolo[4,3-c]pyrimidin-8-yl)pyridin-2-yl)ethanol]
